PubChem BioAssay (NCI)
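1) Cells in 96-well plates. 2) Compound, 48 h, 5 concentrations. 3) Linear interpolation between surrounding doses. 4) Unreached endpoint = highest concentration. The concentration for full growth arrest is given as TGI.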

Key:
Test in all cases: inhibition of tumour cell growth, NCI panel, 48 h
786-0 renal = system: 786-0 renal
A549 NSCLC = system: A549 NSCLC
ACHN renal = system: ACHN renal
BT-549 breast = system: BT-549 breast
CAKI-1 renal = system: CAKI-1 renal
CCRF-CEM leukemia = system: CCRF-CEM leukemia
COLO 205 colon = system: COLO 205 colon
DU-145 prostate = system: DU-145 prostate
EKVX NSCLC = system: EKVX NSCLC
HCC-2998 colon = system: HCC-2998 colon
HCT-116 colon = system: HCT-116 colon
HCT-15 colon = system: HCT-15 colon
HL-60(TB) leukemia = system: HL-60(TB) leukemia
HOP-62 NSCLC = system: HOP-62 NSCLC
HOP-92 NSCLC = system: HOP-92 NSCLC
HS 578T breast = system: HS 578T breast
HT29 colon = system: HT29 colon
IGROV1 ovarian = system: IGROV1 ovarian
K-562 leukemia = system: K-562 leukemia
KM12 colon = system: KM12 colon
LOX IMVI melanoma = system: LOX IMVI melanoma
M14 melanoma = system: M14 melanoma
MCF7 breast = system: MCF7 breast
MDA-MB-231 breast = system: MDA-MB-231 breast
MDA-MB-435 = system: MDA-MB-435
MDA-N = system: MDA-N
MOLT-4 leukemia = system: MOLT-4 leukemia
NCI-H226 lung = system: NCI-H226 lung
NCI-H23 lung = system: NCI-H23 lung
NCI-H460 lung = system: NCI-H460 lung
NCI-H522 lung = system: NCI-H522 lung
NCI/ADR-RES ovarian = system: NCI/ADR-RES ovarian
OVCAR-3 ovarian = system: OVCAR-3 ovarian
OVCAR-4 ovarian = system: OVCAR-4 ovarian
OVCAR-5 ovarian = system: OVCAR-5 ovarian
OVCAR-8 ovarian = system: OVCAR-8 ovarian
PC-3 prostate = system: PC-3 prostate
RPMI-8226 leukemia = system: RPMI-8226 leukemia
RXF 393 renal = system: RXF 393 renal
SF-268 CNS = system: SF-268 CNS
SF-295 CNS = system: SF-295 CNS
SF-539 CNS = system: SF-539 CNS
SK-MEL-2 melanoma = system: SK-MEL-2 melanoma
SK-MEL-28 melanoma = system: SK-MEL-28 melanoma
SK-MEL-5 melanoma = system: SK-MEL-5 melanoma
SK-OV-3 ovarian = system: SK-OV-3 ovarian
SN12C renal = system: SN12C renal
SNB-19 CNS = system: SNB-19 CNS
SNB-75 CNS = system: SNB-75 CNS
SW-620 colon = system: SW-620 colon
T-47D breast = system: T-47D breast
TK-10 renal = system: TK-10 renal
U251 CNS = system: U251 CNS
UACC-257 melanoma = system: UACC-257 melanoma
UACC-62 melanoma = system: UACC-62 melanoma
UO-31 renal = system: UO-31 renal

SMILES: O=C1C(C=NC(=S)c2ccccc2)=C(O)c2ccccc21
- TGI (786-0 renal): > 66.7 µM
- TGI (A549 NSCLC): > 100 µM
- TGI (ACHN renal): > 100 µM
- TGI (BT-549 breast): > 94 µM
- TGI (CAKI-1 renal): > 100 µM
- TGI (CCRF-CEM leukemia): 53.9 µM
- TGI (COLO 205 colon): > 100 µM
- TGI (DU-145 prostate): > 100 µM
- TGI (EKVX NSCLC): > 100 µM
- TGI (HCC-2998 colon): > 100 µM
- TGI (HCT-116 colon): > 100 µM
- TGI (HCT-15 colon): > 100 µM
- TGI (HL-60(TB) leukemia): 22 µM
- TGI (HOP-62 NSCLC): > 100 µM
- TGI (HOP-92 NSCLC): > 84.8 µM
- TGI (HS 578T breast): > 100 µM
- TGI (HT29 colon): > 100 µM
- TGI (IGROV1 ovarian): > 70.5 µM
- TGI (K-562 leukemia): > 100 µM
- TGI (KM12 colon): > 100 µM
- TGI (LOX IMVI melanoma): > 67.9 µM
- TGI (M14 melanoma): > 100 µM
- TGI (MCF7 breast): > 100 µM
- TGI (MDA-MB-231 breast): > 100 µM
- TGI (MDA-MB-435): > 100 µM
- TGI (MDA-N): > 100 µM
- TGI (MOLT-4 leukemia): 69.3 µM
- TGI (NCI-H226 lung): > 100 µM
- TGI (NCI-H23 lung): > 100 µM
- TGI (NCI-H460 lung): > 100 µM
- TGI (NCI-H522 lung): 50.9 µM
- TGI (NCI/ADR-RES ovarian): > 100 µM
- TGI (OVCAR-3 ovarian): > 100 µM
- TGI (OVCAR-4 ovarian): > 100 µM
- TGI (OVCAR-5 ovarian): > 100 µM
- TGI (OVCAR-8 ovarian): > 100 µM
- TGI (PC-3 prostate): > 100 µM
- TGI (RPMI-8226 leukemia): 67.6 µM
- TGI (RXF 393 renal): > 100 µM
- TGI (SF-268 CNS): > 100 µM
- TGI (SF-295 CNS): > 100 µM
- TGI (SF-539 CNS): > 100 µM
- TGI (SK-MEL-2 melanoma): > 100 µM
- TGI (SK-MEL-28 melanoma): > 100 µM
- TGI (SK-MEL-5 melanoma): > 100 µM
- TGI (SK-OV-3 ovarian): 85.6 µM
- TGI (SN12C renal): > 100 µM
- TGI (SNB-19 CNS): > 100 µM
- TGI (SNB-75 CNS): > 100 µM
- TGI (SW-620 colon): > 100 µM
- TGI (T-47D breast): > 100 µM
- TGI (TK-10 renal): > 100 µM
- TGI (U251 CNS): > 100 µM
- TGI (UACC-257 melanoma): > 100 µM
- TGI (UACC-62 melanoma): > 100 µM
- TGI (UO-31 renal): > 88.9 µM
